According to PubChem BioAssay (NCI):
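Method: 48-hour compound exposure of cells in 96-well plates, five concentrations, linear interpolation of endpoints. TGI is the concentration that stops growth completely.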

What was measured:
Assay in all cases: NCI-60 cell line screen, 48 h
TK-10 renal = tested on: TK-10 renal
NCI-H460 lung = tested on: NCI-H460 lung
SNB-19 CNS = tested on: SNB-19 CNS
OVCAR-8 ovarian = tested on: OVCAR-8 ovarian
DMS 273 small cell lung = tested on: DMS 273 small cell lung
M14 melanoma = tested on: M14 melanoma
SK-OV-3 ovarian = tested on: SK-OV-3 ovarian
SF-295 CNS = tested on: SF-295 CNS
NCI-H522 lung = tested on: NCI-H522 lung
KM12 colon = tested on: KM12 colon
M19-MEL melanoma = tested on: M19-MEL melanoma
K-562 leukemia = tested on: K-562 leukemia
DMS 114 small cell lung = tested on: DMS 114 small cell lung
UACC-62 melanoma = tested on: UACC-62 melanoma
SF-268 CNS = tested on: SF-268 CNS
XF 498 CNS = tested on: XF 498 CNS
SK-MEL-5 melanoma = tested on: SK-MEL-5 melanoma
OVCAR-3 ovarian = tested on: OVCAR-3 ovarian
HOP-92 NSCLC = tested on: HOP-92 NSCLC
SK-MEL-2 melanoma = tested on: SK-MEL-2 melanoma
KM20L2 colon = tested on: KM20L2 colon
HT29 colon = tested on: HT29 colon
RPMI-8226 leukemia = tested on: RPMI-8226 leukemia
786-0 renal = tested on: 786-0 renal
UACC-257 melanoma = tested on: UACC-257 melanoma
RXF-631 renal = tested on: RXF-631 renal
SNB-75 CNS = tested on: SNB-75 CNS
CCRF-CEM leukemia = tested on: CCRF-CEM leukemia
ACHN renal = tested on: ACHN renal
COLO 205 colon = tested on: COLO 205 colon
OVCAR-4 ovarian = tested on: OVCAR-4 ovarian
U251 CNS = tested on: U251 CNS
A498 renal = tested on: A498 renal
LOX IMVI melanoma = tested on: LOX IMVI melanoma
LXFL 529 NSCLC = tested on: LXFL 529 NSCLC
HOP-62 NSCLC = tested on: HOP-62 NSCLC
NCI-H226 lung = tested on: NCI-H226 lung
HL-60(TB) leukemia = tested on: HL-60(TB) leukemia
CAKI-1 renal = tested on: CAKI-1 renal
HOP-18 NSCLC = tested on: HOP-18 NSCLC
SR leukemia = tested on: SR leukemia
IGROV1 ovarian = tested on: IGROV1 ovarian
MOLT-4 leukemia = tested on: MOLT-4 leukemia
HCC-2998 colon = tested on: HCC-2998 colon
HCT-116 colon = tested on: HCT-116 colon
SW-620 colon = tested on: SW-620 colon
A549 NSCLC = tested on: A549 NSCLC
HCT-15 colon = tested on: HCT-15 colon
UO-31 renal = tested on: UO-31 renal
SK-MEL-28 melanoma = tested on: SK-MEL-28 melanoma
MALME-3M melanoma = tested on: MALME-3M melanoma
OVCAR-5 ovarian = tested on: OVCAR-5 ovarian
SF-539 CNS = tested on: SF-539 CNS
DLD-1 colon = tested on: DLD-1 colon
NCI-H23 lung = tested on: NCI-H23 lung
SN12C renal = tested on: SN12C renal

Measured: TGI

C[C@]12CCC(=O)C[C@H]1CCC(O)[C@@H]2Br (stereo partly specified)
> 100 µM: all assays above
